Assay results reported in US20230076527A1, “TREATMENT OF PAROXYSMAL NOCTURNAL HEMOGLOBINURIA” (Apellis Pharmaceuticals, Inc., priority 2020, published 2023).
Values joined by “and” are separate entries in the source; they are usually repeats but may differ in a detail not shown here. Identical values can stand only once.

Assays:
[1] = tested on: patients with PNH; experiment: PEGASUS Phase 3 trial, 16-week randomized controlled period: hematologic and fatigue efficacy endpoints; type: in vivo, human; conditions: for non-inferiority to eculizumab on absolute reticulocyte count / non-inferiority to eculizumab on transfusion avoidance: key secondary endpoint; for non-inferiority to eculizumab on absolute reticulocyte count: margin 10; for non-inferiority to eculizumab on transfusion avoidance: margin -20%
Text: The PEGASUS trial protocol consisted of an 8-week screening period, a 52-week treatment period, and a 12-week follow up period.
The treatment period consisted of three parts: a 4-week run-in period, a 16-week Randomized Controlled Period and a 32-week open-label Study Drug only period.
During the Randomized Controlled Period, subjects returned to the clinical site at Weeks 1, 2, 4, 6, 8, 12 and 16 for efficacy and safety assessments.
The primary endpoint in the study was an increase in hemoglobin level from baseline to Week 16 (excluding data before the Randomized Controlled Period). Key secondary endpoints included transfusion avoidance, reduction in reticulocyte count, reduction in LDH level, and changes in Functional Assessment of Chronic Illness Therapy (FACIT)-fatigue scale score, Version 4. […] Hierarchical significance testing for secondary efficacy endpoints was gated on the success of the primary efficacy endpoint. Post hoc analyses included hemoglobin stabilization (defined as avoidance of a >1 g/dL decrease from baseline) in the absence of transfusions and hematologic response to treatment.
The between-treatment group comparison for the primary efficacy endpoint was performed using a mixed effect model for repeated measures (MMRM) (Mallinckrodt, DID 42:30 (2008)). The model included fixed categorical effects for treatment group, study visit, stratification variables (based on transfusion history and platelet count) and the study visit-bytreatment group interaction, as well as the continuous, fixed covariate of baseline Hb level.
The number and percentage of subjects with transfusion avoidance were tabulated by treatment group and compared between treatment groups using a stratified Cochran-Mantel Haenszel (CMH) chi-square test. The treatment difference in percentages and 95% confidence interval for the difference were presented using the stratified method (Miettinen, Statistics in Medicine 4:213-226 (1985)).
The change from baseline at Week 16 in reticulocyte count, LDH level and FACIT-fatigue scale score were analyzed using the same methods described for the primary analysis of the primary efficacy endpoint except using their own baseline as a covariate, using the ITT and mITT sets.
For any subject who discontinued study treatment, any values collected after discontinuation continued to be used in analyses (Treatment Policy).
Additionally, the primary endpoint of hemoglobin change from baseline (before first dose of pegcetacoplan) to week 16 and secondary endpoints (transfusion avoidance, change from baseline at week 16 in absolute reticulocyte count and lactate dehydrogenase) were analyzed by subgroups based on number of packed red blood cell transfusions (<4 vs ≥4) within the 12 months prior to Day -28 and platelet count at screening (<100,000 /mm^3 vs >100,000 /mm^3).

[2] = tested on: patients with PNH; conditions: in vivo
Procedure: Pharmacokinetics and pharmacodynamics were also assessed, including change from baseline in percentage of PNH Type II + III RBCs at week 16, and change from baseline in percentage of PNH Type II + III RBCs opsonized with C3 at week 16. Incidence and severity of treatment-emergent adverse events (TEAEs), incidence of thromboembolic events, changes from baseline in laboratory parameters, and changes from baseline in electrocardiogram (ECG) parameters were also assessed.
The primary endpoint was assessed on ITT set (included all subjects who were randomized), and change from Baseline to Week 16 in Hb level was measured. […] Safety Analysis was conducted in the safety set (which included all subjects who were randomized and received at least 1 dose of monotherapy Study Drug).
Subjects were divided into various sets. The Run-in Set included all subjects who received at least one dose of APL-2. The Intent-to-Treat (ITT) Set included all subjects who were randomized. The analyses using this set was based upon the randomized treatment group allocated. The Safety Set included all subjects who were randomized and received at least 1 dose of monotherapy Study Drug. This set was used for safety analyses. The analyses using this set were based upon the actual treatment received. The Modified ITT (mITT) Set included all subjects in the ITT set who received at least one dose of monotherapy beyond their Week 4 after randomization in the Randomized Controlled Period. The analyses using this set were based upon the randomized treatment group allocated. […] Subjects were required to receive their randomized treatment to be included in the set and so analyses using this set were by default based upon the actual treatment group allocated. The Completer Set consisted of all subjects in the ITT set who completed the Week 16 efficacy assessment for the study. The analyses using this set were based upon the randomized treatment group allocated.

[3] = week 16, <4 transfusions stratum
[4] = week 16, <100,000 /mm^3 platelet stratum
[5] = week 16, censored for transfusion
[6] = week 16, ≥4 transfusions stratum
[7] = week 16, ≥100,000 /mm^3 platelet stratum

Poly(oxy-1,2-ethanediyl), α-hydro-ω-hydroxy-, 15,15ʹ -diester with N-acetyl-L-isoleucyl-L-cysteinyl-L-valyl-1-methyl-L-tryptophyl-L-glutaminyl-L-α-aspartyl-L-tryptophylglycyl-L-alanyl-L-histidyl-L-arginyl-L-cysteinyl-L-threonyl-2-[2-(2-aminoethoxy)ethoxy]acetyl-N^6-carboxy-L-lysinamide cyclic (2-->12)-(disulfide) [pegcetacoplan]
patients achieving at least a three-point improvement in FACIT-fatigue score ([1]; 16 weeks): 73% | patients achieving reticulocyte normalization ([1]; 16 weeks, 30-120 × 10^9 cells/L): 78% | patients achieving LDH normalization ([1]; 16 weeks, normal range 113-226 U/L): 71% | transfusion avoidance, adjusted risk difference versus eculizumab ([1]; <4 transfusions group, 95% CI 26.2%-81.3%): 53.8% | FACIT-fatigue score, adjusted mean change from baseline to Week 16 ([1]; MMRM): 9.2 | absolute reticulocyte count, adjusted mean decrease from baseline to week 16 ([1]; baseline 217×10^9 /L): 1.35e+11 L⁻¹ | non-inferiority to eculizumab on absolute reticulocyte count [1]: Non-inferiority was met | non-inferiority to eculizumab on absolute reticulocyte count ([1]; listed as Pegcetacoplan): met non-inferiority | non-inferiority to eculizumab on transfusion avoidance [1]: Non-inferiority was met | non-inferiority to eculizumab on transfusion avoidance ([1]; listed as Pegcetacoplan): met non-inferiority | subjects who required transfusions post randomization ([1]; out of 41 (pegcetacoplan group), out of 39 (eculizumab group)): 6 subjects | proportion of transfusion-free patients ([1]; over 16 weeks, <4 transfusions within 12 months prior to Day -28): 85% | transfusion avoidance (transfusion-free patients) ([1]; over 16 weeks, all patients): 85.4% and 85% | proportion of transfusion-free patients ([1]; over 16 weeks, platelet stratum <100,000 /mm^3): 83.3% | proportion of transfusion-free patients ([1]; over 16 weeks, platelet stratum ≥100,000 /mm^3): 86.2% | proportion of transfusion-free patients ([1]; over 16 weeks, ≥4 transfusions within 12 months prior to Day -28): 85.7% and 86% | transfusion avoidance, adjusted risk difference versus eculizumab ([1]; overall patients, 95% CI 48.3%-76.8%): 62.5% | hemoglobin higher than the eculizumab arm ([1]; week 16): 53% | mean hemoglobin change from baseline regardless of baseline platelet count strata ([1]; week 16): significantly increased | LDH LS mean change from baseline [1, 3]: -52.31 U/L | absolute reticulocyte count LS mean change from baseline [1, 3]: -152.59 × 10^9 cells/L | LDH LS mean change from baseline [1, 4]: -73.14 U/L | absolute reticulocyte count LS mean change from baseline [1, 4]: -147.17 × 10^9 cells/L | adjusted mean hemoglobin change from baseline ([1]; week 16, all patients, baseline 8.7 g/dL, post-transfusion data excluded): 2.4 g/dL | proportion of patients achieving hemoglobin normalization [1, 5]: 34% | proportion of patients achieving ≥2 g/dL improvement in hemoglobin [1, 5]: 61% | proportion of patients achieving hemoglobin stabilization ([1]; week 16, censored for transfusion, avoidance of >1 g/dL decrease from baseline): 85% | adjusted mean hemoglobin change from baseline ([1]; week 16, fewer than 4 transfusions within 12 months prior to Day -28, baseline 8.9 g/dL): 2.97 g/dL | indirect bilirubin level ([1]; week 16, including post-transfusion data): 13.8 µmol/L | non-inferiority to eculizumab in the change from baseline in LDH ([1]; week 16, margin 20): did not demonstrate non-inferiority | mean FACIT-fatigue score ([1]; week 16, observed data, baseline 32.2 (pegcetacoplan), 31.6 (eculizumab)): 41.8 (SD 9.61) | improvement in adjusted means of hemoglobin versus eculizumab ([1]; week 16, p<0.0001, MMRM): 3.8 g/dL | LDH LS mean change from baseline [1, 6]: -54.99 U/L | absolute reticulocyte count LS mean change from baseline [1, 6]: -124.75 × 10^9 cells/L | LDH LS mean change from baseline [1, 7]: -41.96 U/L | absolute reticulocyte count LS mean change from baseline [1, 7]: -137.28 × 10^9 cells/L | LDH adjusted mean change from baseline ([1]; week 16, baseline 258 U/L (pegcetacoplan), 309 U/L (eculizumab)): -15 U/L | transfusion avoidance, adjusted risk difference versus eculizumab ([1]; ≥4 transfusions group, 95% CI 64.2%-98.5%): 81.4% | All Infections [2]: 12 (29.3) n(%) | Sepsis [2]: 0 n(%)
